From patent US20070105181A1, “Identification of cancer biomarkers and phosphorylated pdroteins” (Invitrogen Corporation, priority 2005, published 2007)

Test system: Dok-2 phosphorylation (tyrosine 299)
Experiment: SILAC/MALDI-TOF quantitation of Dok-2 phosphopeptide in CML cells after STI571 treatment
Assay type: cell-based
Settings: human CML cells
Protocol: SILAC is a also powerful tool for quantifying posttranslational modifications. We examined the change in the level of phosphophorylation of Dok-2 in response to treatment of STI571, an inhibitor of Bcr-Abl kinase, in human chronic myelogenous leukemia cells. As a control, aliquots of heavy tyrosine (U—^13C9) labeled cells (5×10^8) were mixed equally with light tyrosine (^12C) labeled cells (5×10^8) before the drug treatment.
A first aliquot of heavy tyrosine labeled cells (5×10^8) was preincubated with 1 μM of STI571 at 37° C. for 1 h and then mixed with an equal number of light (natural abundance) isotope tyrosine labeled cells. A second aliquot of heavy tyrosine labeled cells (5×10^8) was preincubated with 1 μM of STI571 at 37° C. for 2 h and then also mixed with an equal number of light (natural abundance) isotope tyrosine labeled cells. In both cases, the cell mixtures (1×10^9) were lysed with NP40 lysis buffer and incubated with 30 μg of the GST fusion of the SH2 domain of SHIP1 conjugated to glutathione Sepharose 4B. Affinity captured proteins were then analyzed by SDS-PAGE on a NuPAGE® acrylamide gel (Invitrogen, Carlsbad, Calif.) and stained with SimplyBlue™ SafeStain™ protein gel stain (Invitrogen, Carlsbad, Calif.). The Dok-2 protein bands from each mixed cell sample were excised and digested with trypsin. The resulting tryptic peptides were analyzed by MALDI-TOF.

## Cc1ccc(NC(=O)c2ccc(CN3CCN(C)CC3)cc2)cc1Nc1nccc(-c2cccnc2)n1 [STI571]
1 μM STI571, 37° C., 1 h
  amount of phosphopeptide of Dok2 reduced to (peptide ratio m/z 1688 to m/z 1697): 75%
1 μM STI571, 37° C., 2 h
  inhibition of heavy labeled Dok-2 phosphopeptide (ratio of isotopic peptide pairs): more than 90%
STI571 treatment, 1 h
  decrease of phosphorylation level of Dok-2 Tyrosine 299 site: 75%
